Laboratory results as given in paper PMC2976052 (The Journal of steroid biochemistry and molecular biology, 2010).
Read-outs that look alike come from different tables or passages of the source.

Tests used:
[1] = biological target: T1, GFP-GRER chimera (Homo sapiens, UniProt P03372); assay: cell-based
[2] = biological target: T1, GFP-GRER chimera; settings: ER agonist treatment ref 17; cited from earlier work
[3] = system: parental C127 cell line; assay type: cell-based, murine; settings: for nuclear translocation: parental cell line; for nuclear fluorescence in parental cell line: hits retested in parental cell line
[4] = biological target: T1, GFP-GRER chimera
[5] = system: 6020 cells; assay: Cytotoxicity measurements by image analysis
[6] = estradiol dose response, five 384-well plates
[7] = staurosporine dose-response, 4 hours, 96-well

T1 sequence (P03372 302-595, change not shown): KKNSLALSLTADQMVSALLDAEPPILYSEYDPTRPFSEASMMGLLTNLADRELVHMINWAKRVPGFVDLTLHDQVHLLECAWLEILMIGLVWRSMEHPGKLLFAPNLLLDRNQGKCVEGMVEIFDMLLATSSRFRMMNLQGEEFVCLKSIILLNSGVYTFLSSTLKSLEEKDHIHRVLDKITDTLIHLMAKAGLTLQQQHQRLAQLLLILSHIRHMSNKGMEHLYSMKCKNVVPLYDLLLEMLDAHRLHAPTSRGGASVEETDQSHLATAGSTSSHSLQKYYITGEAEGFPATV

## CCCc1c(-c2ccc(O)cc2)nn(-c2ccc(O)cc2)c1-c1ccc(O)cc1 [PPT, propyl pyrazoletriol]
[1]
  EC50: 141 nM
[2]
  effect on transcription, ERE-driven gene reporter: induced transcription

## COc1cccc2c1C(=O)c1c(O)c3c(c(O)c1C2=O)C[C@@](O)(C(=O)CO)C[C@@H]3O[C@H]1C[C@H](N)[C@H](O)[C@H](C)O1 [adriamycin]
[3]; hit retest in quadruplicate
  nuclear translocation: 95%
[4]; 6020 (assay) cell line, hit retest in quadruplicate
  nuclear translocation: 97%

## C[C@]12CC[C@@H]3c4ccc(O)cc4CC[C@H]3[C@@H]1CC[C@@H]2O [estradiol, 17-β estradiol]
[5]; [6]
  cytoplasmic area: does not decrease
  nuclear area: remains unchanged
[3]
  nuclear fluorescence in parental cell line: did not show nuclear fluorescence
[3]; 5 μM estradiol control
  nuclear translocation: 0%

## C[C@]12CC[C@@H]3c4ccc(O)cc4CC[C@H]3[C@@H]1CCC2=O [estrone]
[3]
  nuclear fluorescence in parental cell line: did not show nuclear fluorescence

## O=C(c1ccc(OCCN2CCCCC2)cc1)c1c(-c2ccc(O)cc2)sc2cc(O)ccc12 [raloxifene]
[3]; hit retest in quadruplicate
  nuclear translocation: 0%

## CN[C@@H]1C[C@H]2O[C@@](C)([C@@H]1OC)n1c3ccccc3c3c4c(c5c6ccccc6n2c5c31)C(=O)NC4 [staurosporine]
[5]; [7]
  cytoplasmic area: dose-dependent decrease in cytoplasmic area
  nuclear area: dose-dependent decrease in nuclear area
[5]; staurosporine dose-response, data not shown
  ROIs (cell number): decrease in cell number with increasing staurosporine concentration
[4]; staurosporine dose-response for 4 hours, 96-well
  nuclear translocation result of cytotoxic compound: false positive nuclear translocation results
